In PubChem BioAssay (NCI):
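Briefly, cells in 96-well plates were exposed to five compound concentrations for 48 h, and endpoints were estimated by linear interpolation. At the GI50, growth is halved. TGI marks complete inhibition of growth.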

Tests used:
Test in all cases: NCI-60 cell line screen, 48 h
OVCAR-4 ovarian = tested on: OVCAR-4 ovarian
UACC-62 melanoma = tested on: UACC-62 melanoma
OVCAR-8 ovarian = tested on: OVCAR-8 ovarian
NCI-H226 lung = tested on: NCI-H226 lung
SN12C renal = tested on: SN12C renal
NCI/ADR-RES ovarian = tested on: NCI/ADR-RES ovarian
ACHN renal = tested on: ACHN renal
OVCAR-5 ovarian = tested on: OVCAR-5 ovarian
TK-10 renal = tested on: TK-10 renal
SNB-75 CNS = tested on: SNB-75 CNS
MALME-3M melanoma = tested on: MALME-3M melanoma
DU-145 prostate = tested on: DU-145 prostate
IGROV1 ovarian = tested on: IGROV1 ovarian
PC-3 prostate = tested on: PC-3 prostate
BT-549 breast = tested on: BT-549 breast
UO-31 renal = tested on: UO-31 renal
A498 renal = tested on: A498 renal
HCT-116 colon = tested on: HCT-116 colon
SF-539 CNS = tested on: SF-539 CNS
U251 CNS = tested on: U251 CNS
SF-295 CNS = tested on: SF-295 CNS
SK-MEL-5 melanoma = tested on: SK-MEL-5 melanoma
HOP-92 NSCLC = tested on: HOP-92 NSCLC
HOP-62 NSCLC = tested on: HOP-62 NSCLC
RXF 393 renal = tested on: RXF 393 renal
MDA-MB-435 = tested on: MDA-MB-435
HCC-2998 colon = tested on: HCC-2998 colon
SK-MEL-28 melanoma = tested on: SK-MEL-28 melanoma
SK-MEL-2 melanoma = tested on: SK-MEL-2 melanoma
COLO 205 colon = tested on: COLO 205 colon
NCI-H460 lung = tested on: NCI-H460 lung
SK-OV-3 ovarian = tested on: SK-OV-3 ovarian
CAKI-1 renal = tested on: CAKI-1 renal
SF-268 CNS = tested on: SF-268 CNS
786-0 renal = tested on: 786-0 renal
NCI-H522 lung = tested on: NCI-H522 lung
UACC-257 melanoma = tested on: UACC-257 melanoma

`FC(F)(F)c1cc(Nc2ccc3c(OCCCN4CCOCC4)cccc3n2)ccc1Cl` gave a GI50 (OVCAR-4 ovarian) of 3070 nM, a TGI (OVCAR-4 ovarian) greater than 100000 nM and a GI50 (UACC-62 melanoma) of 2050 nM. The TGI (UACC-62 melanoma) was 4160 nM, the GI50 (OVCAR-8 ovarian) was 4330 nM and the TGI (OVCAR-8 ovarian) was greater than 100000 nM. For the same molecule, the GI50 (NCI-H226 lung) was 3540 nM, the TGI (NCI-H226 lung) was greater than 100000 nM and the GI50 (SN12C renal) was 3350 nM. For the same molecule, the TGI (SN12C renal) was 16800 nM, the GI50 (NCI/ADR-RES ovarian) was 3160 nM and the TGI (NCI/ADR-RES ovarian) was greater than 100000 nM. It also gave a GI50 (ACHN renal) of 2980 nM, a TGI (ACHN renal) of 10300 nM and a GI50 (OVCAR-5 ovarian) of 2360 nM. The TGI (OVCAR-5 ovarian) was 6240 nM, the GI50 (TK-10 renal) was 3490 nM and the TGI (TK-10 renal) was greater than 100000 nM. The GI50 (SNB-75 CNS) was 1890 nM, the TGI (SNB-75 CNS) was 6200 nM and the GI50 (MALME-3M melanoma) was 1690 nM. It also gave a TGI (MALME-3M melanoma) of 4110 nM, a GI50 (DU-145 prostate) of 2780 nM and a TGI (DU-145 prostate) greater than 100000 nM. For the same molecule, the GI50 (IGROV1 ovarian) was 3960 nM, the TGI (IGROV1 ovarian) was 37800 nM and the GI50 (PC-3 prostate) was 2260 nM. The TGI (PC-3 prostate) was greater than 100000 nM, the GI50 (BT-549 breast) was 2430 nM and the TGI (BT-549 breast) was 8760 nM. It also gave a GI50 (UO-31 renal) of 1630 nM, a TGI (UO-31 renal) of 4290 nM and a GI50 (A498 renal) of 3120 nM. For the same molecule, the TGI (A498 renal) was 48300 nM, the GI50 (HCT-116 colon) was 2070 nM and the TGI (HCT-116 colon) was 4550 nM. The GI50 (SF-539 CNS) was 1900 nM and the TGI (SF-539 CNS) was 4010 nM.

`COc1cc2c(-c3nc4cc(Cl)c(F)cc4s3)cc(=O)oc2c(C)c1OC` showed a GI50 (U251 CNS) of 1290 nM, a TGI (U251 CNS) of 2660 nM and a GI50 (SF-295 CNS) of 1010 nM. The TGI (SF-295 CNS) was 2340 nM, the GI50 (SK-MEL-5 melanoma) was 1230 nM and the TGI (SK-MEL-5 melanoma) was 2560 nM. For the same molecule, the GI50 (OVCAR-4 ovarian) was 1650 nM, the TGI (OVCAR-4 ovarian) was 3160 nM and the GI50 (UACC-62 melanoma) was 1300 nM. The TGI (UACC-62 melanoma) was 2690 nM, the GI50 (HOP-92 NSCLC) was 498 nM and the TGI (HOP-92 NSCLC) was 2160 nM. The GI50 (OVCAR-8 ovarian) was 1500 nM, the TGI (OVCAR-8 ovarian) was 3470 nM and the GI50 (NCI-H226 lung) was 1720 nM. It also gave a TGI (NCI-H226 lung) of 3990 nM, a GI50 (HOP-62 NSCLC) of 1670 nM and a TGI (HOP-62 NSCLC) of 3160 nM. For the same molecule, the GI50 (RXF 393 renal) was 1550 nM, the TGI (RXF 393 renal) was 3080 nM and the GI50 (MDA-MB-435) was 1770 nM. For the same molecule, the TGI (MDA-MB-435) was 3760 nM, the GI50 (HCC-2998 colon) was 2400 nM and the TGI (HCC-2998 colon) was 4290 nM. For the same molecule, the GI50 (ACHN renal) was 1360 nM, the TGI (ACHN renal) was 2810 nM and the GI50 (SK-MEL-28 melanoma) was 1810 nM. For the same molecule, the TGI (SK-MEL-28 melanoma) was 3490 nM, the GI50 (SK-MEL-2 melanoma) was 2070 nM and the TGI (SK-MEL-2 melanoma) was 3900 nM. The GI50 (COLO 205 colon) was 1660 nM, the TGI (COLO 205 colon) was 3320 nM and the GI50 (NCI-H460 lung) was 2110 nM. The TGI (NCI-H460 lung) was 4610 nM, the GI50 (OVCAR-5 ovarian) was 1800 nM and the TGI (OVCAR-5 ovarian) was 3390 nM. The GI50 (TK-10 renal) was 1960 nM, the TGI (TK-10 renal) was 3470 nM and the GI50 (SNB-75 CNS) was 620 nM. It also gave a TGI (SNB-75 CNS) of 1920 nM, a GI50 (MALME-3M melanoma) of 311 nM and a TGI (MALME-3M melanoma) of 1140 nM. For the same molecule, the GI50 (SK-OV-3 ovarian) was 1630 nM, the TGI (SK-OV-3 ovarian) was 3030 nM and the GI50 (DU-145 prostate) was 1620 nM. For the same molecule, the TGI (DU-145 prostate) was 3050 nM, the GI50 (IGROV1 ovarian) was 207 nM and the TGI (IGROV1 ovarian) was 662 nM. For the same molecule, the GI50 (CAKI-1 renal) was 307 nM, the TGI (CAKI-1 renal) was 780 nM and the GI50 (BT-549 breast) was 648 nM. For the same molecule, the TGI (BT-549 breast) was 1820 nM, the GI50 (SF-268 CNS) was 1140 nM and the TGI (SF-268 CNS) was 3240 nM. The GI50 (UO-31 renal) was 154 nM, the TGI (UO-31 renal) was 339 nM and the GI50 (A498 renal) was 1500 nM. For the same molecule, the TGI (A498 renal) was 2870 nM, the GI50 (786-0 renal) was 1020 nM and the TGI (786-0 renal) was 2210 nM. The GI50 (SF-539 CNS) was 183 nM, the TGI (SF-539 CNS) was 379 nM and the GI50 (NCI-H522 lung) was 176 nM. It also gave a TGI (NCI-H522 lung) of 354 nM, a GI50 (UACC-257 melanoma) of 1380 nM and a TGI (UACC-257 melanoma) of 2890 nM.
